From ChEMBL document CHEMBL1127966, “Acyclic NK1 antagonists: Replacements for the benzhydryl group” (Bioorg Med Chem Lett, 1994)

Columns and labels:
Substance-P receptor = Substance-P receptor (Homo sapiens, UniProt P25103); assay: Binding affinity of compound was determined from inhibition of [125I]- substance P binding to the hNK1 receptor in CHO cells; type: cell-based
[1] = target: T1, Neuromedin-K receptor (Homo sapiens) (UniProt P29371); assay: Binding affinity to Tachykinin receptor 3
T1 sequence (whole entry): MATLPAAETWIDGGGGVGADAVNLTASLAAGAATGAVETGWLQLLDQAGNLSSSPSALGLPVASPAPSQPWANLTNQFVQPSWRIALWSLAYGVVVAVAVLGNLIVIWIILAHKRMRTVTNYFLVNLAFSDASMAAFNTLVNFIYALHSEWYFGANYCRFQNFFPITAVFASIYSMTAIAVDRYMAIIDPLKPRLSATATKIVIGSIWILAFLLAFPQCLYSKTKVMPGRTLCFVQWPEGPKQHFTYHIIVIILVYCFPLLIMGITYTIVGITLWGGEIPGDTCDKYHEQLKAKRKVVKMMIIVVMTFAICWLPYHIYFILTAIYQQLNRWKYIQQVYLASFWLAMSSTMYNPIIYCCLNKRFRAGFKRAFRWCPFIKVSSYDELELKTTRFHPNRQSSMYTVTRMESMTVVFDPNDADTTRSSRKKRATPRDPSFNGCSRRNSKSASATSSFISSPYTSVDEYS

[2] = target: T2, Substance-K receptor (Homo sapiens) (UniProt P21452); assay: Binding affinity to Tachykinin receptor 2
T2 sequence (whole entry): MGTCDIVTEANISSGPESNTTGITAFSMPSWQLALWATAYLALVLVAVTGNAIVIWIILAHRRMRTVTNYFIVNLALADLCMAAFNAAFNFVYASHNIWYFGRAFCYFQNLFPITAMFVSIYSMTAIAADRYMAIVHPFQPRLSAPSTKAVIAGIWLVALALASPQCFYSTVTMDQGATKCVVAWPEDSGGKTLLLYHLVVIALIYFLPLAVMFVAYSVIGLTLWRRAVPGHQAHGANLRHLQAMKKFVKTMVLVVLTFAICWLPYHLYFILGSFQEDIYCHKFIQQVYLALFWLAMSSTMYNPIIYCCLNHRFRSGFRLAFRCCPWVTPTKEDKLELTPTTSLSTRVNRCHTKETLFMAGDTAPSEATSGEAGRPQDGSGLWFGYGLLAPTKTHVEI

Sequence of Substance-P receptor (P25103 whole entry): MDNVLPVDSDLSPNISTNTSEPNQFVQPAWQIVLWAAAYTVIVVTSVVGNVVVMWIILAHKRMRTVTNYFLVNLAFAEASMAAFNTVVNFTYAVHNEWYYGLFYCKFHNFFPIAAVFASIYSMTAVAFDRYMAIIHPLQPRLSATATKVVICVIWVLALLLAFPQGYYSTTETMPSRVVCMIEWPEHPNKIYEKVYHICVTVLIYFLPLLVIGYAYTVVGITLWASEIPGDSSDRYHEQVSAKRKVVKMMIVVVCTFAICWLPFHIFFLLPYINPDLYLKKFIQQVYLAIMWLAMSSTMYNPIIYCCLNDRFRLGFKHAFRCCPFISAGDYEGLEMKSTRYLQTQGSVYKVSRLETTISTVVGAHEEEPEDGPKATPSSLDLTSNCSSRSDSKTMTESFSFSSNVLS

Structure (SMILES) | IC50 (Substance-P receptor) [nM] | Affinity [1] [µM] | Affinity [2] [µM]
Cc1cc(C)cc(COCC(N)C2c3ccccc3CCc3ccccc32)c1 (centres undefined) | 93 | – | –
Cc1cc(C)cc(COCC(N)Cc2cccc3ccccc23)c1 (centres undefined) | 1160 | – | –
Cc1cc(C)cc(COCC(N)Cc2ccccc2)c1 (centres undefined) | 483 | – | –
Cc1cc(C)cc(COCC(N)C2c3ccccc3C=Cc3ccccc32)c1 (centres undefined) | 80 | – | –
Cc1cc(C)cc(COCC(N)C(c2ccccc2)c2ccccc2)c1 (centres undefined) | 9.3 | – | –

The next lines start with the values.

IC50 (Substance-P receptor) [nM] | Affinity [1] [µM] | Affinity [2] [µM] | Structure (SMILES)
2500 | – | – | Cc1cc(C)cc(COC[C@H](N)c2ccccc2)c1
55 | > 10 | > 10 | Cc1cc(C)cc(COC[C@@H](N)c2ccccc2)c1
